Measured values taken from patent publication US20110166191A1, “3-(2-amino-ethyl)-5-(3-cyclohexyl-propylidene)-thiazolidine-2,4-dione and its derivatives as multiple signaling pathway inhibitors and for the treatment of cancer” (priority 2010, published 2011).

Experiments:
786-0 = assay: NCI 60 cell line panel screening; format: cell-based; settings: Homo sapiens, Renal Cancer, read-out: Growth Inhibition (GI50)
From the text: (§1) Compound 3-(2-aminoethyl)-5-(3-cyclohexylpropylidene)thiazolidine-2,4-dione was screened at five concentrations in National Cancer Institute (NCI) 60-cell line panel according to NCI's protocol for growth inhibition.

A498 = assay: NCI 60 cell line panel screening; format: cell-based; settings: Homo sapiens, Renal Cancer, read-out: Growth Inhibition (GI50)
From the text: as §1

A549/ATCC = assay: NCI 60 cell line panel screening; format: cell-based; settings: Homo sapiens, Non-Small Cell Lung Cancer, read-out: Growth Inhibition (GI50)
From the text: as §1

CAKI-1 = assay: NCI 60 cell line panel screening; format: cell-based; settings: Homo sapiens, Renal Cancer, read-out: Growth Inhibition (GI50)
From the text: as §1

COLO 205 = assay: NCI 60 cell line panel screening; format: cell-based; settings: Homo sapiens, Colon Cancer, read-out: Growth Inhibition (GI50)
From the text: as §1

DU-145 = assay: NCI 60 cell line panel screening; format: cell-based; settings: Homo sapiens, Prostate Cancer, read-out: Growth Inhibition (GI50)
From the text: as §1

EKVX = assay: NCI 60 cell line panel screening; format: cell-based; settings: Homo sapiens, Non-Small Cell Lung Cancer, read-out: Growth Inhibition (GI50)
From the text: as §1

HCT-116 = assay: NCI 60 cell line panel screening; format: cell-based; settings: Homo sapiens, Colon Cancer, read-out: Growth Inhibition (GI50)
From the text: as §1

HCT-15 = assay: NCI 60 cell line panel screening; format: cell-based; settings: Homo sapiens, Colon Cancer, read-out: Growth Inhibition (GI50)
From the text: as §1

HL-60(TB) = assay: NCI 60 cell line panel screening; format: cell-based; settings: Homo sapiens, Leukemia, read-out: Growth Inhibition (GI50)
From the text: as §1

HS 578T = assay: NCI 60 cell line panel screening; format: cell-based; settings: Homo sapiens, Breast Cancer, read-out: Growth Inhibition (GI50)
From the text: as §1

K-562 = assay: NCI 60 cell line panel screening; format: cell-based; settings: Homo sapiens, K562, Leukemia, read-out: Growth Inhibition (GI50)
From the text: as §1

KM12 = assay: NCI 60 cell line panel screening; format: cell-based; settings: Homo sapiens, Colon Cancer, read-out: Growth Inhibition (GI50)
From the text: as §1

LOX IMVI = assay: NCI 60 cell line panel screening; format: cell-based; settings: Homo sapiens, Melanoma, read-out: Growth Inhibition (GI50)
From the text: as §1

MALME-3M = assay: NCI 60 cell line panel screening; format: cell-based; settings: Homo sapiens, Melanoma, read-out: Growth Inhibition (GI50)
From the text: as §1

MCF7 = assay: NCI 60 cell line panel screening; format: cell-based; settings: Homo sapiens, Breast Cancer, read-out: Growth Inhibition (GI50)
From the text: as §1

MDA-MB-231/ATCC = assay: NCI 60 cell line panel screening; format: cell-based; settings: Homo sapiens, Breast Cancer, read-out: Growth Inhibition (GI50)
From the text: as §1

MDA-MB-435 = assay: NCI 60 cell line panel screening; format: cell-based; settings: Homo sapiens, Melanoma, read-out: Growth Inhibition (GI50)
From the text: as §1

MDA-MB-468 = assay: NCI 60 cell line panel screening; format: cell-based; settings: Homo sapiens, Breast Cancer, read-out: Growth Inhibition (GI50)
From the text: as §1

NCI-522 = assay: NCI 60 cell line panel screening; format: cell-based; settings: Non-Small Cell Lung Cancer, read-out: Growth Inhibition (GI50)
From the text: as §1

NCI-H226 = assay: NCI 60 cell line panel screening; format: cell-based; settings: Homo sapiens, Non-Small Cell Lung Cancer, read-out: Growth Inhibition (GI50)
From the text: as §1

NCI-H460 = assay: NCI 60 cell line panel screening; format: cell-based; settings: Homo sapiens, Non-Small Cell Lung Cancer, read-out: Growth Inhibition (GI50)
From the text: as §1

OVCAR-3 = assay: NCI 60 cell line panel screening; format: cell-based; settings: Homo sapiens, Ovarian Cancer, read-out: Growth Inhibition (GI50)
From the text: as §1

PC-3 = assay: NCI 60 cell line panel screening; format: cell-based; settings: Homo sapiens, Prostate Cancer, read-out: Growth Inhibition (GI50)
From the text: as §1

SF-268 = assay: NCI 60 cell line panel screening; format: cell-based; settings: Homo sapiens, CNS Cancer, read-out: Growth Inhibition (GI50)
From the text: as §1

SF-539 = assay: NCI 60 cell line panel screening; format: cell-based; settings: Homo sapiens, CNS Cancer, read-out: Growth Inhibition (GI50)
From the text: as §1

SN12C = assay: NCI 60 cell line panel screening; format: cell-based; settings: Homo sapiens, Renal Cancer, read-out: Growth Inhibition (GI50)
From the text: as §1

SNB-19 = assay: NCI 60 cell line panel screening; format: cell-based; settings: Homo sapiens, CNS Cancer, read-out: Growth Inhibition (GI50)
From the text: as §1

SNB-75 = assay: NCI 60 cell line panel screening; format: cell-based; settings: Homo sapiens, CNS Cancer, read-out: Growth Inhibition (GI50)
From the text: as §1

SW-620 = assay: NCI 60 cell line panel screening; format: cell-based; settings: Homo sapiens, Colon Cancer, read-out: Growth Inhibition (GI50)
From the text: as §1

TK-10 = assay: NCI 60 cell line panel screening; format: cell-based; settings: Homo sapiens, Renal Cancer, read-out: Growth Inhibition (GI50)
From the text: as §1

U251 = assay: NCI 60 cell line panel screening; format: cell-based; settings: Homo sapiens, U-251, CNS Cancer, read-out: Growth Inhibition (GI50)
From the text: as §1

UACC-257 = assay: NCI 60 cell line panel screening; format: cell-based; settings: Homo sapiens, Melanoma, read-out: Growth Inhibition (GI50)
From the text: as §1

UACC-62 = assay: NCI 60 cell line panel screening; format: cell-based; settings: Homo sapiens, Melanoma, read-out: Growth Inhibition (GI50)
From the text: as §1

B16F10 melanoma cells = assay: Reduction of murine B16F10 melanoma lung nodules in mice; format: in vivo, B6C3F1 mice; settings: 20 mg/kg daily gavage
Description: FIG. 5. […] Female B6C3F1 mice (10-11/group) were injected with 2×10^5 B16F10 melanoma cells (i.v.), and treatment with 20 mg/kg dose daily (gavage) was started one day before the tumor cell injection and stopped at day 15 after tumor injection. Mice were sacrificed at day 18 and lungs were removed for counting and observation.
Female B6C3F1 mice (10-11/group) were injected with 2×10^5 B16F10 melanoma cells (i.v.), and treatment with the compound produced as described in Example 4i.e. 3-(2-aminoethyl)-5-(3-cyclohexylpropylidene)thiazolidine-2,4-dione, 20 mg/kg dosage daily (gavage) was started one day before the tumor cell injection and stopped at day 15 after tumor injection. Mice were sacrificed at day 18 and lungs were removed for counting and observation.

Toxicity studies in mice = format: in vivo; settings: B6C3F1 mice, orally 30 mg/kg, 50 mg/kg and 80 mg/kg, 21 days
Description: Female B6C3F1 mice (12/group) were given example 4 orally at 30 mg/kg, 50 mg/kg and 80 mg/kg dosage or example 820 mg/kg orally for 21 days.

## NCCN1C(=O)S/C(=C\CCC2CCCCC2)C1=O [Example 4, 3-(2-aminoethyl)-5-(3-cyclohexylpropylidene)thiazolidine-2,4-dione]
786-0
  GI50: 1.72 µM
A498
  GI50: 1.57 µM
A549/ATCC
  GI50: 2.5 µM
CAKI-1
  GI50: 1.64 µM
COLO 205
  GI50: 2.19 µM
DU-145
  GI50: 1.76 µM
EKVX
  GI50: 2.53 µM
HCT-116
  GI50: 1.67 µM
HCT-15
  GI50: 2.47 µM
HL-60(TB)
  GI50: 2.04 µM
HS 578T
  GI50: 2.49 µM
K-562
  GI50: 2.59 µM
KM12
  GI50: 1.77 µM
LOX IMVI
  GI50: 1.4 µM
MALME-3M
  GI50: 1.8 µM
MCF7
  GI50: 3.13 µM
MDA-MB-231/ATCC
  GI50: 2.08 µM
MDA-MB-435
  GI50: 1.85 µM
MDA-MB-468
  GI50: 1.86 µM
NCI-522
  GI50: 1.4 µM
NCI-H226
  GI50: 9.98 µM
NCI-H460
  GI50: 1.95 µM
OVCAR-3
  GI50: 1.89 µM
PC-3
  GI50: 1.91 µM
SF-268
  GI50: 2.23 µM
SF-539
  GI50: 1.83 µM
SN12C
  GI50: 2.15 µM
SNB-19
  GI50: 4.46 µM
SNB-75
  GI50: 4.56 µM
SW-620
  GI50: 1.85 µM
TK-10
  GI50: 2.01 µM
U251
  GI50: 1.72 µM
UACC-257
  GI50: 1.69 µM
UACC-62
  GI50: 2.14 µM
B16F10 melanoma cells; B6C3F1 mice, B16F10 melanoma cells i.v., lungs at day 18
  lung tumor nodules: decreased the lung tumor nodules
B16F10 melanoma cells; mice
  oral bioavailability (in words): orally bioavailable
Toxicity studies in mice
  effects on general health and body weight: no effects on general health and body weight were observed
